Reference: patent US6693108B2, “Inhibitors of c-JUN N terminal kinases (JNK) and other protein kinases” (Vertex Pharmaceuticals Incorporated, priority 1999, dated 2004)

Molecular target: T1, activated JNK3 (Homo sapiens, UniProt P53779)
T1 construct: One such construct encodes amino acid residues Ser40-Glu402 of JNK3α1 and is preceded by Met and Gly residues; Met-Gly (initiation Met plus Gly added to create the NcoI site) (N); made in house; host or cells: E. coli BL21 (DE3)
Assay: JNK3 inhibition, spectrophotometric coupled-enzyme assay
Type: biochemical
Set-up: Activity in the JNK3 Inhibition Assay (Ki rating): scale not given here
Conditions: for Ki: read-out: Activity in the JNK3 Inhibition Assay (Ki rating); for Activity in the JNK3 Inhibition Assay (Ki rating): activated JNK3 10 nM, 10 μM ATP, 30° C., Ki from competitive inhibition model
Text: A BLAST search of the EST database using the published JNK3α1 cDNA as a query identified an EST clone (#632588) that contained the entire coding sequence for human JNK3α1. Polymerase chain reactions (PCR) using pfu polymerase (Strategene) were used to introduce restriction sites into the cDNA for cloning into the pET-15B expression vector at the NcoI and BamHI sites. The protein was expressed in E. coli. […] This truncation corresponds to Ser 2 of JNK1 and JNK2 proteins, and is preceded by a methionine (initiation) and a glycine residue. The glycine residue was added in order to introduce an NcoI site for cloning into the expression vector. In addition, systematic C-terminal truncations were performed by PCR to identify a construct that give rise to diffraction-quality crystals.
5 mg of JNK3 was diluted to 0.5 mg/ml in 50 mM HEPES buffer, pH 7.5, containing 100 mM NaCl, 5 mM DTT, 20 mM MgCl2 and 1 mM ATP. GST-MKK7(DD) was added at a molar ratio of 1:2.5 GST-MKK7:JNK3. After incubation for 30 minutes at 25° C., the reaction mixture was concentrated 5-fold by ultrafiltration in a Centriprep-30 (Amicon, Beverly, Mass.), diluted to 10 ml and an additional 1 mM ATP added. This procedure was repeated three times to remove ADP and replenish ATP. The final addition of ATP was 5 mM and the mixture incubated overnight at 4° C.
The activated JNK3/GST-MKK7(DD) reaction mixture was exchanged into 50 mM HEPES buffer, pH 7.5, containing 5 mM DTT and 5% glycerol (w/v) by dialysis or ultrafiltration. The reaction mixture was adjusted to 1.1 M potassium phosphate, pH 7.5, and purified by hydrophobic interaction chromatography (at 25° C.) using a Rainin Hydropore column. […] Activated JNK3 (i.e. doubly phosphorylated JNK3) was stored at −70° C. at 0.25-1 mg/ml.
Compounds were assayed for the inhibition of JNK3 by a spectrophotometric coupled-enzyme assay. In this assay, a fixed concentration of activated JNK3 (10 nM) was incubated with various concentrations of a potential inhibitor dissolved in DMSO for 10 minutes at 30° C. in a buffer containing 0.1 M HEPES buffer, pH 7.5, containing 10 mM MgCl2, 2.5 mM phosphoenolpyruvate, 200 μM NADH, 150 μg/mL pyruvate kinase, 50 μg/mL lactate dehydrogenase, and 200 μM EGF receptor peptide. […] The reaction was initiated by the addition of 10 μM ATP and the assay plate is inserted into the spectrophotometer's assay plate compartment that was maintained at 30° C. The decrease of absorbance at 340 nm was monitored as a function of time. The rate data as a function of inhibitor concentration was fitted to competitive inhibition kinetic model to determine the Ki.

T1 sequence (P53779 40-402): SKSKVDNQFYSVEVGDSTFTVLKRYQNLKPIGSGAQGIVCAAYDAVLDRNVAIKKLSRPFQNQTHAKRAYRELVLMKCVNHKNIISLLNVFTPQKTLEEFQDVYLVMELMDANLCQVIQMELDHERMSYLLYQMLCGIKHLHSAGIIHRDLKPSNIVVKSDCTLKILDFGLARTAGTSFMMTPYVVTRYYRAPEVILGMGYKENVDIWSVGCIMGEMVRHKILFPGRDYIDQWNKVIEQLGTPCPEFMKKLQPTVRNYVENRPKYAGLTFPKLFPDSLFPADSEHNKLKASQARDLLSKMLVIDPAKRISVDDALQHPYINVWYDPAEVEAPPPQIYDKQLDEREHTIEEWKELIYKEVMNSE

Row | SMILES | Ki | Activity in the JNK3 Inhibition Assay (Ki rating)
1 | Cc1onc(-c2cccc(C#N)c2)c1-c1ccnc(Nc2cccc(C#N)c2)n1 [IIA-126] | 0.1 to 1 µM | –
2 | Cc1ccc(Nc2nccc(-c3c(-c4ccccc4)noc3C)n2)cc1 [IIA-103] | < 0.1 µM | –
3 | Cc1onc(-c2cccc(OCc3ccccc3)c2)c1-c1ccnc(Nc2ccccc2)n1 [IIA-119] | 0.1 to 1 µM | –
4 | Cc1onc(-c2cccc(OCc3ccccc3)c2)c1-c1ccnc(Nc2ccc(C#N)c(F)c2)n1 [IIA-117] | 0.1 to 1 µM | –
5 | Cc1onc(-c2ccccc2)c1-c1ccnc(Nc2cccc(F)c2C)n1 [IIA-70] | – | A/B
6 | CC(=O)c1ccc(Nc2nccc(-c3c(-c4ccccc4)noc3C)n2)cc1 [IIA-35] | < 0.1 µM | –
7 | COc1ccccc1Nc1nccc(-c2c(-c3ccccc3)noc2C)n1 [IIA-62] | < 0.1 µM | –
8 | Cc1onc(-c2ccccc2)c1-c1ccnc(Nc2ccccc2)c1 [IIA-52, [4-(5-Methyl-3-phenyl-isoxazol-4-yl)-pyridin-2-yl]phenyl-amine] | < 0.1 µM | –
9 | Cc1onc(-c2c(F)cccc2F)c1-c1ccnc(Nc2ccc(C#N)cc2)n1 [IIA-93] | < 0.1 µM | –
10 | Cc1ccccc1-c1noc(C)c1-c1ccnc(Nc2cccc(C#N)c2)n1 [IIA-109] | < 0.1 µM | –
11 | COc1ccc(Cl)c(Nc2nccc(-c3c(-c4ccccc4)noc3C)n2)c1 [IIA-71] | – | A/B
12 | Cc1onc(-c2ccccc2)c1-c1ccnc(NC(=O)C2CCCC2)n1 [XA-3] | 0.1 to 1 µM | –
13 | COc1cccc(-c2noc(C)c2-c2ccnc(Nc3ccccc3)n2)c1OC [IIA-85] | > 1 µM | –
14 | Cc1onc(-c2cccc(C#N)c2)c1-c1ccnc(Nc2ccccc2)n1 [IIA-127] | 0.1 to 1 µM | –
15 | CCc1onc(-c2ccccc2)c1-c1ccnc(Nc2ccccc2)c1 [IIA-40] | < 0.1 µM | –
16 | Cc1ccccc1-c1noc(C)c1-c1ccnc(Nc2ccccc2)n1 [IIA-104] | < 0.1 µM | –
17 | Cc1onc(-c2cccc([N+](=O)[O-])c2)c1-c1ccnc(Nc2ccccc2)n1 [IIA-123] | 0.1 to 1 µM | –
18 | Cc1onc(-c2cccc(C(F)(F)F)c2)c1-c1ccnc(Nc2ccccc2)n1 [IIA-82] | 0.1 to 1 µM | –
19 | Cc1onc(-c2ccc(F)cc2)c1-c1ccnc(Nc2ccccc2)n1 [IIA-11] | < 0.1 µM | –
20 | Cc1onc(-c2ccccc2)c1-c1ccnc(Nc2cccc(C#N)c2)n1 [IIA-7] | < 0.1 µM | –
21 | Cc1onc(-c2cc(F)cc(F)c2)c1-c1ccnc(Nc2ccccc2)n1 [IIA-83] | 0.1 to 1 µM | –
22 | CSc1ccc(Nc2nccc(-c3c(-c4c(F)cccc4F)noc3C)n2)cc1 [IIA-97] | < 0.1 µM | –
23 | Cc1onc(C2CC2)c1-c1ccnc(Nc2ccccc2)n1 [IIA-87] | > 1 µM | –
24 | COc1cccc(-c2noc(C)c2-c2ccnc(Nc3ccccc3)n2)c1OC [IIA-12] | – | B/C
25 | CCOC(=O)c1ccc(Nc2nccc(-c3c(-c4cccc([N+](=O)[O-])c4)noc3C)n2)cc1 [IIA-128] | 0.1 to 1 µM | –
26 | Cc1onc(-c2ccccc2)c1-c1ccnc(Nc2cccc(CC(=O)O)c2)c1 [IIA-133] | < 0.1 µM | –
27 | COc1ccc(Nc2nccc(-c3c(-c4ccccc4)noc3C)n2)cc1C [IIA-72] | – | A/B
28 | Cc1onc(-c2ccc3c(c2)OCO3)c1-c1ccnc(Nc2ccccc2)n1 [IIA-115] | 0.1 to 1 µM | –
29 | Cc1onc(-c2ccccc2F)c1-c1ccnc(Nc2ccccc2)n1 [IIA-55] | < 0.1 µM | –

Second part, the compound after the results:

Row | Ki | Activity in the JNK3 Inhibition Assay (Ki rating) | SMILES
30 | 0.1 to 1 µM | – | Cc1onc(-c2c(F)cccc2F)c1-c1ccnc(NC(=O)c2ccc(F)cc2)n1 [IIIA-69]
31 | > 1 µM | – | COc1ccc(C(=O)Nc2nccc(-c3c(-c4cccc(C#N)c4)noc3C)n2)cc1 [IIIA-40]
32 | 0.1 to 1 µM | – | COc1ccc(C(=O)Nc2nccc(-c3c(-c4ccccc4F)noc3C)n2)cc1 [IIIA-58]
33 | > 1 µM | – | COc1cccc(OC)c1C(=O)Nc1nccc(-c2c(-c3ccccc3)noc2C)n1 [IIIA-10]
34 | < 0.1 µM | – | Fc1ccc(-c2noc(COC3CCOC3)c2-c2ccnc(NC3CCCCC3)n2)cc1 (stereo not shown) [XIA-50]
35 | 0.1 to 1 µM | – | Cc1onc(-c2c(F)cccc2F)c1-c1ccnc(NC(=O)c2cccc(C#N)c2)n1 [IIIA-71]
36 | 0.1 to 1 µM | – | Cc1ccc(C(=O)Nc2nccc(-c3c(-c4cccc(F)c4)noc3C)n2)cc1 [IIIA-50]
37 | 0.1 to 1 µM | – | COc1cc(OC)cc(C(=O)Nc2nccc(-c3c(-c4cccc(F)c4)noc3C)n2)c1 [IIIA-47]
38 | < 0.1 µM | – | Fc1ccc(-c2noc(COCc3ccccc3)c2-c2ccnc(NC3CCCCC3)n2)cc1 [XIA-52]
39 | 0.1 to 1 µM | – | COc1cc(C(=O)Nc2nccc(-c3c(-c4ccccc4F)noc3C)n2)cc(OC)c1OC [IIIA-62]
40 | < 0.1 µM | – | CCOC(=O)N1CCC(Nc2nccc(-c3c(-c4ccccc4)noc3C)n2)CC1 [IIAA-31]
41 | 0.1 to 1 µM | – | Cc1onc(-c2ccccc2)c1-c1ccnc(NC2CCN(Cc3ccccc3)CC2)n1 [IIAA-27]
42 | 0.1 to 1 µM | – | Cc1onc(-c2ccccc2F)c1-c1ccnc(NC(=O)c2cccc(C#N)c2)n1 [IIIA-61]
43 | < 0.1 µM | – | COCc1onc(-c2ccc(F)cc2)c1-c1ccnc(NC2CCCCC2)n1 [XIA-47]
44 | 0.1 to 1 µM | – | COC(=O)c1ccc(C(=O)Nc2nccc(-c3c(-c4ccccc4)noc3C)n2)cc1 [IIIA-44]
45 | > 1 µM | – | COc1cc(C(=O)Nc2nccc(-c3c(-c4cccc(C#N)c4)noc3C)n2)cc(OC)c1OC [IIIA-38]
46 | < 0.1 µM | – | Cc1onc(-c2ccccc2)c1-c1ccnc(Nc2ccc3c(c2)CCC3=O)n1 [IIAA-11]
47 | > 1 µM | – | COc1cc(OC)cc(C(=O)Nc2nccc(-c3c(-c4ccccc4C(F)(F)F)noc3C)n2)c1 [IIIA-25]
48 | 0.1 to 1 µM | – | COc1cc(OC)cc(C(=O)Nc2nccc(-c3c(-c4ccccc4C)noc3C)n2)c1 [IIIA-21]
49 | > 1 µM | – | COc1cc(OC)cc(C(=O)Nc2nccc(-c3c(-c4cccc([N+](=O)[O-])c4)noc3C)n2)c1 [IIIA-37]
50 | 0.1 to 1 µM | – | Cc1ccc2cc(Nc3nccc(-c4c(-c5ccccc5C)noc4C)n3)ccc2n1 [IIAA-20]

Row | Ki | Activity in the JNK3 Inhibition Assay (Ki rating) | SMILES
51 | 0.1 to 1 µM | – | COc1cccc(C(=O)Nc2nccc(-c3c(-c4cccc(F)c4)noc3C)n2)c1 [IIIA-46]
52 | 0.1 to 1 µM | – | COc1ccc(C(=O)Nc2nccc(-c3c(-c4cccc(OCc5ccccc5)c4)noc3C)n2)cc1 [IIIA-32]
53 | > 1 µM | – | COc1ccc(C(=O)Nc2nccc(-c3c(-c4cccc([N+](=O)[O-])c4)noc3C)n2)cc1 [IIIA-36]
54 | 0.1 to 1 µM | – | Cc1onc(-c2cccc(F)c2)c1-c1ccnc(NC(=O)c2ccc(F)cc2)n1 [IIIA-49]
55 | < 0.1 µM | – | OCc1onc(-c2ccc(F)cc2)c1-c1ccnc(NCCc2ccccn2)n1 [XIA-46]
56 | < 0.1 µM | – | O=S1(=O)CCC(OCc2onc(-c3ccc(F)cc3)c2-c2ccnc(NC3CCCCC3)n2)C1 (stereo not shown) [XIA-51]
57 | > 1 µM | – | Cc1onc(-c2ccccc2)c1-c1ccnc(NC(=O)c2ccccc2Cl)n1 [IIIA-4]
58 | 0.1 to 1 µM | – | Cc1onc(-c2cccc(F)c2)c1-c1ccnc(NC(=O)c2cccc(C#N)c2)n1 [IIIA-51]
59 | 0.1 to 1 µM | – | COc1cc(C(=O)Nc2nccc(-c3c(-c4cccc(F)c4)noc3C)n2)cc(OC)c1OC [IIIA-52]
60 | 0.1 to 1 µM | – | COc1ccc(C(=O)Nc2nccc(-c3c(-c4c(F)cccc4F)noc3C)n2)cc1 [IIIA-68]
61 | 0.1 to 1 µM | – | Cc1onc(-c2ccccc2F)c1-c1ccnc(NC(=O)c2ccc(F)cc2)n1 [IIIA-59]
62 | 0.1 to 1 µM | – | COCc1ccc2ccccc2c1Nc1nccc(-c2c(-c3ccccc3)noc2C)n1 [IIAA-18]
63 | < 0.1 µM | – | Cc1onc(-c2ccccc2)c1-c1ccnc(NC2CCCCC2)n1 [IIAA-24]
64 | > 1 µM | – | Cc1ccccc1C(=O)Nc1nccc(-c2c(-c3ccccc3)noc2C)n1 [IIIA-5]
65 | 0.1 to 1 µM | – | COc1cc(C(=O)Nc2nccc(-c3c(-c4cccc(OCc5ccccc5)c4)noc3C)n2)cc(OC)c1OC [IIIA-30]
66 | < 0.1 µM | – | COc1ccc2cc(Nc3nccc(-c4c(-c5ccccc5C)noc4C)n3)ccc2c1 [IIAA-19]
67 | > 1 µM | – | Cc1onc(-c2ccccc2)c1-c1ccnc(NC(=O)c2ccccc2Br)n1 [IIIA-2]
68 | > 1 µM | – | COc1ccc(C(=O)Nc2nccc(-c3c(-c4ccccc4C(F)(F)F)noc3C)n2)cc1 [IIIA-24]
69 | 0.1 to 1 µM | – | COc1cc(OC)cc(C(=O)Nc2nccc(-c3c(-c4ccccc4)noc3C)n2)c1 [IIIA-42]
70 | < 0.1 µM | – | Cc1onc(-c2ccccc2)c1-c1ccnc(NC2CCC(=O)CC2)n1 [IIAA-38]
